Measured values reported in PubChem BioAssay (NCI).
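Grown in 96-well plates, cells were treated for 48 hours with each compound at five concentrations. Insufficient inhibition: endpoint recorded as highest concentration tested. At the TGI there is no net growth.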

These compounds were tested on 786-0 renal (assay: NCI anticancer screen, dose series, 48 h).

Compound	TGI [µM]
Nc1ccc(-c2nc3cc(F)ccc3s2)cc1Cl	> 100
Oc1c(C2=NNC(c3ccc(Cl)cc3Cl)C2)ccc2ccccc12 (stereo unspecified)	> 100
CCCCC1=NNC(=O)C1	> 100

What follows are compounds tested on RPMI-8226 leukemia (assay: NCI anticancer screen, dose series, 48 h).

Compound	TGI [µM]
OC1[C@@H]2[C@@H](O)[C@H](O)[C@@H](O)N2C[C@@H]1O (stereo partly specified)	> 23.5
C=C1C(=O)C[C@H]2C(=C)C(=O)O[C@@H]2C2C1CC[C@@]2(C)O (stereo partly specified)	> 100
O=C(NC(Cc1c[nH]c2ccccc12)C(=O)Nc1ccc(Br)cc1)OCc1ccccc1 (stereo unspecified)	34.2
COC(=O)C1=C(C)NC2=C(C(=O)c3ccccc32)C1c1cn(-c2ccccc2)nc1-c1ccccc1 (stereo unspecified)	> 100
Cc1cc(C)n2nc3nc(N)c(C#N)c(-c4ccccc4)c3c2n1	> 100
CC(C)(Cl)C(Br)CCC(C)(Cl)C(Br)CBr (stereo unspecified)	42.2
O=C(NCC(=O)N1CCCC1C(=O)OC(=O)C1CCCN1C(=O)CNC(=O)OCc1ccccc1)OCc1ccccc1 (stereo unspecified)	70.2
CC(C)CC1C(=O)NCCC(NC(=O)C(Cc2ccc(OC(C)(C)C)cc2)NC(=O)OC(C)(C)C)C(=O)NC(Cc2ccccc2)C(=O)NC(Cc2ccccc2)NC1=O (stereo unspecified)	54.4
N#Cc1nc2ccccc2nc1N1CCN(c2ccc([N+](=O)[O-])cc2)CC1	> 100
COC(=O)c1cc2c3c(ccc2[nH]1)N(C(=O)c1cc2cc(OC)c(OC)c(OC)c2[nH]1)CC3CCl (stereo unspecified)	> 21.5
Nc1ccc(Oc2ccc(C34CC5CC6C3CC3CC4C(C5)C6(c4ccc(Oc5ccc(N)cc5)cc4)C3)cc2)cc1	47.5
Cc1cc2c(cc1Cl)SC(NS(=O)(=O)c1ccc(Cl)cc1)=NS2(=O)=O	> 100
COC(=O)CCC1=CCC2(SC)C(=O)Nc3cccc1c32 (stereo unspecified)	> 100
O=C1C2CC=CCC2C(=O)N1n1c(Cc2ccc(Cl)cc2)n[nH]c1=O (stereo unspecified)	> 100
Nc1ccc(-c2nc3cc(F)ccc3s2)cc1Cl	> 100
Oc1c(C2=NNC(c3ccc(Cl)cc3Cl)C2)ccc2ccccc12 (stereo unspecified)	> 100
CCCCC1=NNC(=O)C1	> 100

The compounds below were run on NCI/ADR-RES ovarian (assay: NCI anticancer screen, dose series, 48 h).

Compound	TGI [µM]
OC1[C@@H]2[C@@H](O)[C@H](O)[C@@H](O)N2C[C@@H]1O (stereo partly specified)	> 100
C=C1C(=O)C[C@H]2C(=C)C(=O)O[C@@H]2C2C1CC[C@@]2(C)O (stereo partly specified)	64.2
O=C(NC(Cc1c[nH]c2ccccc12)C(=O)Nc1ccc(Br)cc1)OCc1ccccc1 (stereo unspecified)	54.3
COC(=O)C1=C(C)NC2=C(C(=O)c3ccccc32)C1c1cn(-c2ccccc2)nc1-c1ccccc1 (stereo unspecified)	> 100
Cc1cc(C)n2nc3nc(N)c(C#N)c(-c4ccccc4)c3c2n1	> 100
CC(C)(Cl)C(Br)CCC(C)(Cl)C(Br)CBr (stereo unspecified)	68
O=C(NCC(=O)N1CCCC1C(=O)OC(=O)C1CCCN1C(=O)CNC(=O)OCc1ccccc1)OCc1ccccc1 (stereo unspecified)	> 100
CC(C)CC1C(=O)NCCC(NC(=O)C(Cc2ccc(OC(C)(C)C)cc2)NC(=O)OC(C)(C)C)C(=O)NC(Cc2ccccc2)C(=O)NC(Cc2ccccc2)NC1=O (stereo unspecified)	> 100
N#Cc1nc2ccccc2nc1N1CCN(c2ccc([N+](=O)[O-])cc2)CC1	> 100
COC(=O)c1cc2c3c(ccc2[nH]1)N(C(=O)c1cc2cc(OC)c(OC)c(OC)c2[nH]1)CC3CCl (stereo unspecified)	> 91.8
Nc1ccc(Oc2ccc(C34CC5CC6C3CC3CC4C(C5)C6(c4ccc(Oc5ccc(N)cc5)cc4)C3)cc2)cc1	> 100
Cc1cc2c(cc1Cl)SC(NS(=O)(=O)c1ccc(Cl)cc1)=NS2(=O)=O	> 100
COCC1OC(Sc2ccccc2)C(O)C(OC)C1OC (stereo unspecified)	> 100
CC1(C)CC(=O)c2[nH]c3ccccc3c2CC(=O)NCCc2cn1cn2	> 100
COC(=O)CCC1=CCC2(SC)C(=O)Nc3cccc1c32 (stereo unspecified)	> 100
O=C1C2CC=CCC2C(=O)N1n1c(Cc2ccc(Cl)cc2)n[nH]c1=O (stereo unspecified)	> 100
Nc1ccc(-c2nc3cc(F)ccc3s2)cc1Cl	> 100
Oc1c(C2=NNC(c3ccc(Cl)cc3Cl)C2)ccc2ccccc12 (stereo unspecified)	83.3
CCCCC1=NNC(=O)C1	> 100

These compounds were tested on HS 578T breast (assay: NCI anticancer screen, dose series, 48 h).

Compound	TGI [µM]
OC1[C@@H]2[C@@H](O)[C@H](O)[C@@H](O)N2C[C@@H]1O (stereo partly specified)	> 100
C=C1C(=O)C[C@H]2C(=C)C(=O)O[C@@H]2C2C1CC[C@@]2(C)O (stereo partly specified)	> 100
O=C(NC(Cc1c[nH]c2ccccc12)C(=O)Nc1ccc(Br)cc1)OCc1ccccc1 (stereo unspecified)	56.3
COC(=O)C1=C(C)NC2=C(C(=O)c3ccccc32)C1c1cn(-c2ccccc2)nc1-c1ccccc1 (stereo unspecified)	> 100
Cc1cc(C)n2nc3nc(N)c(C#N)c(-c4ccccc4)c3c2n1	> 100
CC(C)(Cl)C(Br)CCC(C)(Cl)C(Br)CBr (stereo unspecified)	82.9
O=C(NCC(=O)N1CCCC1C(=O)OC(=O)C1CCCN1C(=O)CNC(=O)OCc1ccccc1)OCc1ccccc1 (stereo unspecified)	> 100
CC(C)CC1C(=O)NCCC(NC(=O)C(Cc2ccc(OC(C)(C)C)cc2)NC(=O)OC(C)(C)C)C(=O)NC(Cc2ccccc2)C(=O)NC(Cc2ccccc2)NC1=O (stereo unspecified)	> 100
N#Cc1nc2ccccc2nc1N1CCN(c2ccc([N+](=O)[O-])cc2)CC1	> 100
COC(=O)c1cc2c3c(ccc2[nH]1)N(C(=O)c1cc2cc(OC)c(OC)c(OC)c2[nH]1)CC3CCl (stereo unspecified)	> 100
Nc1ccc(Oc2ccc(C34CC5CC6C3CC3CC4C(C5)C6(c4ccc(Oc5ccc(N)cc5)cc4)C3)cc2)cc1	> 67.5
Cc1cc2c(cc1Cl)SC(NS(=O)(=O)c1ccc(Cl)cc1)=NS2(=O)=O	> 100
COCC1OC(Sc2ccccc2)C(O)C(OC)C1OC (stereo unspecified)	> 100
CC1(C)CC(=O)c2[nH]c3ccccc3c2CC(=O)NCCc2cn1cn2	> 100
COC(=O)CCC1=CCC2(SC)C(=O)Nc3cccc1c32 (stereo unspecified)	> 100
O=C1C2CC=CCC2C(=O)N1n1c(Cc2ccc(Cl)cc2)n[nH]c1=O (stereo unspecified)	> 100
Nc1ccc(-c2nc3cc(F)ccc3s2)cc1Cl	> 90.4
Oc1c(C2=NNC(c3ccc(Cl)cc3Cl)C2)ccc2ccccc12 (stereo unspecified)	> 100
CCCCC1=NNC(=O)C1	> 100

These compounds were tested on CAKI-1 renal (assay: NCI anticancer screen, dose series, 48 h).

Compound	TGI [µM]
OC1[C@@H]2[C@@H](O)[C@H](O)[C@@H](O)N2C[C@@H]1O (stereo partly specified)	> 100
C=C1C(=O)C[C@H]2C(=C)C(=O)O[C@@H]2C2C1CC[C@@]2(C)O (stereo partly specified)	40.3
O=C(NC(Cc1c[nH]c2ccccc12)C(=O)Nc1ccc(Br)cc1)OCc1ccccc1 (stereo unspecified)	34.6
COC(=O)C1=C(C)NC2=C(C(=O)c3ccccc32)C1c1cn(-c2ccccc2)nc1-c1ccccc1 (stereo unspecified)	> 100
Cc1cc(C)n2nc3nc(N)c(C#N)c(-c4ccccc4)c3c2n1	> 100
O=C(NCC(=O)N1CCCC1C(=O)OC(=O)C1CCCN1C(=O)CNC(=O)OCc1ccccc1)OCc1ccccc1 (stereo unspecified)	> 100
CC(C)CC1C(=O)NCCC(NC(=O)C(Cc2ccc(OC(C)(C)C)cc2)NC(=O)OC(C)(C)C)C(=O)NC(Cc2ccccc2)C(=O)NC(Cc2ccccc2)NC1=O (stereo unspecified)	> 100
N#Cc1nc2ccccc2nc1N1CCN(c2ccc([N+](=O)[O-])cc2)CC1	> 100
COC(=O)c1cc2c3c(ccc2[nH]1)N(C(=O)c1cc2cc(OC)c(OC)c(OC)c2[nH]1)CC3CCl (stereo unspecified)	> 100
Nc1ccc(Oc2ccc(C34CC5CC6C3CC3CC4C(C5)C6(c4ccc(Oc5ccc(N)cc5)cc4)C3)cc2)cc1	48
Cc1cc2c(cc1Cl)SC(NS(=O)(=O)c1ccc(Cl)cc1)=NS2(=O)=O	> 100
COCC1OC(Sc2ccccc2)C(O)C(OC)C1OC (stereo unspecified)	> 100
CC1(C)CC(=O)c2[nH]c3ccccc3c2CC(=O)NCCc2cn1cn2	> 100
COC(=O)CCC1=CCC2(SC)C(=O)Nc3cccc1c32 (stereo unspecified)	> 100
O=C1C2CC=CCC2C(=O)N1n1c(Cc2ccc(Cl)cc2)n[nH]c1=O (stereo unspecified)	> 100
Nc1ccc(-c2nc3cc(F)ccc3s2)cc1Cl	> 100
Oc1c(C2=NNC(c3ccc(Cl)cc3Cl)C2)ccc2ccccc12 (stereo unspecified)	> 100
CCCCC1=NNC(=O)C1	> 100

What follows are compounds tested on SK-MEL-2 melanoma (assay: NCI anticancer screen, dose series, 48 h).

Compound	TGI [µM]
OC1[C@@H]2[C@@H](O)[C@H](O)[C@@H](O)N2C[C@@H]1O (stereo partly specified)	> 100
C=C1C(=O)C[C@H]2C(=C)C(=O)O[C@@H]2C2C1CC[C@@]2(C)O (stereo partly specified)	56.6
O=C(NC(Cc1c[nH]c2ccccc12)C(=O)Nc1ccc(Br)cc1)OCc1ccccc1 (stereo unspecified)	19.2
COC(=O)C1=C(C)NC2=C(C(=O)c3ccccc32)C1c1cn(-c2ccccc2)nc1-c1ccccc1 (stereo unspecified)	> 100
Cc1cc(C)n2nc3nc(N)c(C#N)c(-c4ccccc4)c3c2n1	> 100
CC(C)(Cl)C(Br)CCC(C)(Cl)C(Br)CBr (stereo unspecified)	35.4
O=C(NCC(=O)N1CCCC1C(=O)OC(=O)C1CCCN1C(=O)CNC(=O)OCc1ccccc1)OCc1ccccc1 (stereo unspecified)	44.8
N#Cc1nc2ccccc2nc1N1CCN(c2ccc([N+](=O)[O-])cc2)CC1	> 100
COC(=O)c1cc2c3c(ccc2[nH]1)N(C(=O)c1cc2cc(OC)c(OC)c(OC)c2[nH]1)CC3CCl (stereo unspecified)	> 100
Nc1ccc(Oc2ccc(C34CC5CC6C3CC3CC4C(C5)C6(c4ccc(Oc5ccc(N)cc5)cc4)C3)cc2)cc1	23.6
Cc1cc2c(cc1Cl)SC(NS(=O)(=O)c1ccc(Cl)cc1)=NS2(=O)=O	> 100
COCC1OC(Sc2ccccc2)C(O)C(OC)C1OC (stereo unspecified)	> 100
CC1(C)CC(=O)c2[nH]c3ccccc3c2CC(=O)NCCc2cn1cn2	> 100
COC(=O)CCC1=CCC2(SC)C(=O)Nc3cccc1c32 (stereo unspecified)	> 100
O=C1C2CC=CCC2C(=O)N1n1c(Cc2ccc(Cl)cc2)n[nH]c1=O (stereo unspecified)	> 100
